Results reported in patent US6617440B1, “Myostatin regulatory region, nucleotide sequence determination and methods for its use” (Pfizer, Inc., priority 1999, dated 2003).

Assays:
C2C12 muscle cells = assay: Expression of porcine GHRH from a myostatin promoter vector transiently transfected into C2C12 muscle cells; format: cell-based, murine; conditions: transient transfection, compared with a CMV promoter
From the text: Direct injection into muscle of DNA plasmids with muscle specific or constitutive promoters results in expression of the gene under control of that promoter. A vector utilizing the murine 2.5 kb myostatin promoter to drive expression of porcine growth hormone releasing hormone (GHRH) was constructed. […] In accordance with the present invention, the construct may be directly introduced into a host by direct injection of naked DNA.

[1] = test system: luciferase reporter gene in C2C12 cells; assay: Transient transfection luciferase reporter assay of myostatin promoter fragments; format: cell-based, murine; conditions: normalized against Renilla luciferase activity
Method: C2C12 are murine muscle cell lines (ATCC #CRL-1772). These cells were maintained in standard culture media at 37° C.
The 1.8 kb and 2.5 kb myostatin promoter fragments and additional subclones of 320 bp and 901 bp proximal to the myostatin protein coding region were placed into the multicloning site of the pGL3 basic vector (Promega) 5′ to the coding sequence for luciferase. In this vector, the luciferase gene lacks a promoter, and, consequently, is under the control of any promoter cloned upstream of it. These plasmid vectors were used to transiently transfect C2C12 cells, using Fugene (Boehringer Mannheim) as a carrier to introduce the plasmid into the cells. The cell cultures were grown at 37° C., 5% CO2, in DMEM, and luciferase activity was measured using a commercial kit (Promega Luciferase Assay System, E150).
The ability of the various fragments of the murine myostatin promoter region to control expression of the luciferase reporter gene in transient transfection assays is shown in FIG. 2. In each experiment, C2C12 cells were co-transfected with a second vector that employs a CMV promotor to express constitutively a Renilla luciferase gene (pRL-CMV, Promega). Values presented for the myostatin promoter constructs were all normalized against Renilla luciferase activity.

“2.5 kb fragment: 2482 bp DNA fragment immediately 5' to the murine myostatin gene, the murine myostatin promoter (SEQ ID NO: 1)” was tested, and the “expression of GHRH detected in culture supernatants” value (C2C12 muscle cells) was “levels similar to those found using a CMV promoter” and the “transcriptional activity (luciferase reporter expression), in words” value [1] was “strongest promoter of those tested”.
